Results reported in patent publication US20240400584A1, “COMPOUNDS AND METHODS FOR MODULATING SPLICING” (REMIX THERAPEUTICS INC., priority 2021, published 2024).

Key:
[1] = test system: Target C; test: Gene panel canonical junction qPCR assay, Target C CJ mRNA (Table 7); assay type: cell-based, human; details: Homo sapiens, read-out: Target C CJ mRNA decrease IC50
Method in brief: (§1)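 A673 or K562 cells treated with compound; canonical exon-junction mRNA measured by RT-qPCR with junction-spanning primers/probe, normalised to GAPDH, GUSB or PPIA and DMSO (ΔΔCt, RQ). Percentage response set from fixed ΔCt assay windows, fitted to a 4-parameter logistic; IC50 is concentration giving 50% CJ decrease.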

[2] = test system: SMN2; test: Gene panel canonical junction qPCR assay, SMN2 CJ mRNA (Table 7); assay type: cell-based; details: Homo sapiens, read-out: SMN2 CJ mRNA decrease IC50
Method in brief: as §1

[3] = test system: HTT; test: Gene panel canonical junction qPCR assay, HTT CJ mRNA (Table 7); assay type: cell-based, human; details: Homo sapiens, read-out: HTT CJ mRNA decrease IC50
Method in brief: as §1

[4] = test system: MYB; test: Gene panel canonical junction qPCR assay, MYB CJ mRNA (Table 7); assay type: cell-based; details: Homo sapiens, read-out: MYB CJ mRNA decrease IC50
Method in brief: as §1

[5] = test system: HTT; test: RT-qPCR splicing assay, HTT AJ/CJ mRNA; assay type: cell-based, human; details: Homo sapiens, 24 h, A673 or K562 cells; for IC50: decrease in canonical junction mRNA; for AC50: increase in alternative junction mRNA
Method in brief: (§2)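 Following 24 h compound exposure at 37 °C (11 points, 3-fold, highest 10 uM; DMSO ≤0.25%), A673 or K562 lysates underwent RT-qPCR for exon-inclusion (AJ) and canonical (CJ) junctions of HTT and MYB. Relative quantification used housekeeping-gene ΔCt and DMSO-normalized ΔΔCt, converted to percentage response.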

[6] = test system: MYB; test: RT-qPCR splicing assay, MYB AJ/CJ mRNA; assay type: cell-based; details: Homo sapiens, A673 or K562 cells, 24 hours; for IC50: decrease in canonical junction mRNA; for AC50: increase in alternative junction mRNA
Method in brief: as §2

Compound	IC50 [1]	IC50 [2]	IC50 [3]	IC50 [4]	IC50 [5]	IC50 [6]	AC50 [5]	AC50 [6]
COc1cc(-c2cc(F)c3c(c2)COc2nc(N(C)[C@@H]4C[C@H]5CC[C@@H](C4)N5)ccc2-3)cnn1 [Compound 254, (1R,3S,5S)—N-[10-fluoro-8-(6-methoxypyridazin-4-yl)-6H-isochromeno[3,4-b]pyridin-3-yl]-N-methyl-8-azabicyclo[3.2.1]octan-3-amine; bis(trifluoroacetaldehyde)]	100 to 1000 nM	< 100 nM	< 100 nM	100 to 1000 nM	< 100 nM	100 to 1000 nM	< 100 nM	100 to 1000 nM
COc1cc(-c2ccc3c(c2)COc2nc(N4CCC(NC5CC5)C4)ccc2-3)cnn1 (centres unmarked) [Compound 255, N-cyclopropyl-1-[8-(6-methoxypyridazin-4-yl)-6H-isochromeno[3,4-b]pyridin-3-yl]pyrrolidin-3-amine]	1000 to 10000 nM	100 to 1000 nM	100 to 1000 nM	1000 to 10000 nM	100 to 1000 nM	1000 to 10000 nM	1000 to 10000 nM	1000 to 10000 nM
COc1cc(-c2ccc3c(c2)COc2nc(N4CCC(NC5(C)CC5)C4)ccc2-3)cnn1 (centres unmarked) [Compound 256, 1-[8-(6-methoxypyridazin-4-yl)-6H-isochromeno[3,4-b]pyridin-3-yl]-N-(1-methylcyclopropyl)pyrrolidin-3-amine]	100 to 1000 nM	100 to 1000 nM	100 to 1000 nM	1000 to 10000 nM	100 to 1000 nM	1000 to 10000 nM	100 to 1000 nM	1000 to 10000 nM
CC(C)(C)N[C@@H]1CCN(c2ccc3c(n2)OCc2cc(-c4cn[nH]c4)ccc2-3)C1 [Compound 257, (3R)—N-tert-butyl-1-[8-(1H-pyrazol-4-yl)-6H-isochromeno[3,4-b]pyridin-3-yl]pyrrolidin-3-amine]	< 100 nM	< 100 nM	< 100 nM	100 to 1000 nM	< 100 nM	100 to 1000 nM	< 100 nM	100 to 1000 nM
CC(C)(C)N[C@H]1CCN(c2ccc3c(n2)OCc2cc(-c4cn[nH]c4)ccc2-3)C1 [Compound 258, (3S)—N-tert-butyl-1-[8-(1H-pyrazol-4-yl)-6H-isochromeno[3,4-b]pyridin-3-yl]pyrrolidin-3-amine]	100 to 1000 nM	100 to 1000 nM	100 to 1000 nM	1000 to 10000 nM	100 to 1000 nM	1000 to 10000 nM	100 to 1000 nM	100 to 1000 nM
Fc1cc2c(cc1-c1cn[nH]c1)COc1nc(O[C@@H]3C[C@H]4CC[C@@H](C3)N4)ccc1-2 [Compound 260]	100 to 1000 nM	< 100 nM	< 100 nM	100 to 1000 nM	< 100 nM	100 to 1000 nM	< 100 nM	< 100 nM
Cn1ncc(-c2ccc3c(c2)COc2nc(OC4CC5CC(F)(F)C(C4)N5)ccc2-3)cc1=O (centres unmarked) [Compound 261, 5-[3-({6,6-difluoro-8-azabicyclo[3.2.1]octan-3-yl}oxy)-6H-isochromeno[3,4-b]pyridin-8-yl]-2-methylpyridazin-3-one]	> 10000 nM	> 10000 nM	> 10000 nM	> 10000 nM	> 10000 nM	> 10000 nM	> 10000 nM	> 10000 nM
COc1cc(-c2ccc3c(c2)COc2nc(N4CCC(NCC5CC5)C4)ccc2-3)cnn1 (centres unmarked) [Compound 264, N-(cyclopropylmethyl)-1-[8-(6-methoxypyridazin-4-yl)-6H-isochromeno [3,4-b]378yrrolid-3-yl]378yrrolidine-3-amine]	100 to 1000 nM	100 to 1000 nM	100 to 1000 nM	1000 to 10000 nM	100 to 1000 nM	1000 to 10000 nM	100 to 1000 nM	1000 to 10000 nM
COc1cc(-c2ccc3c(c2)COc2nc(N4CC[C@H](N(C)C(C)(C)C)C4)ccc2-3)cnn1 [Compound 270, (3S)—N-tert-butyl-1-[8-(6-methoxypyridazin-4-yl)-6H-isochromeno[3,4-b]pyridin-3-yl]-N-methylpyrrolidin-3-amine]	100 to 1000 nM	< 100 nM	< 100 nM	100 to 1000 nM	< 100 nM	100 to 1000 nM	< 100 nM	100 to 1000 nM
COc1cc(-c2ccc3c(c2)COc2nc(N4CC[C@@H](N(C)C(C)(C)C)C4)ccc2-3)cnn1 [Compound 271, (3R)—N-tert-butyl-1-[8-(6-methoxypyridazin-4-yl)-6H-isochromeno [3,4-b]377yrrolid-3-yl]-N-methylpyrrolidin-3-amine]	100 to 1000 nM	< 100 nM	< 100 nM	100 to 1000 nM	< 100 nM	100 to 1000 nM	< 100 nM	100 to 1000 nM
CC(C)(C)NC1CCN(c2ccc3c(n2)OCc2cc(-c4ccnnc4)ccc2-3)C1 (centres unmarked) [Compound 272, N-tert-butyl-1-[8-(pyridazin-4-yl)-6H-isochromeno[3,4-b]pyridin-3-yl]pyrrolidin-3-amine]	> 10000 nM	1000 to 10000 nM	1000 to 10000 nM	> 10000 nM	1000 to 10000 nM	> 10000 nM	1000 to 10000 nM	> 10000 nM
COc1cc(-c2ccc3c(c2)COc2nc(N(C)C4CC(C)(C)NC(C)(C)C4)ncc2-3)cnn1 [Compound 276, N-[8-(6-methoxypyridazin-4-yl)-6H-isochromeno[3,4-d]pyrimidin-3-yl]-N,2,2,6,6-pentamethylpiperidin-4-amine]	100 to 1000 nM	100 to 1000 nM	100 to 1000 nM	1000 to 10000 nM	100 to 1000 nM	1000 to 10000 nM	100 to 1000 nM	1000 to 10000 nM
CN(c1ncc2c(n1)OCc1cc(-c3cnnc(O)c3)ccc1-2)C1CC(C)(C)NC(C)(C)C1 [Compound 277, 5-{3-[methyl(2,2,6,6-tetramethylpiperidin-4-yl)amino]-6H-isochromeno[3,4-d]pyrimidin-8-yl}pyridazin-3-ol]	1000 to 10000 nM	100 to 1000 nM	100 to 1000 nM	1000 to 10000 nM	100 to 1000 nM	1000 to 10000 nM	100 to 1000 nM	1000 to 10000 nM

Continued, in another order:

IC50 [1]	IC50 [2]	IC50 [3]	IC50 [4]	IC50 [5]	IC50 [6]	Compound	AC50 [5]	AC50 [6]
> 10000 nM	> 10000 nM	> 10000 nM	> 10000 nM	> 10000 nM	> 10000 nM	CC(C)Oc1cc(-c2ccc3c(c2)COc2nc(N4CCC(NC(C)(C)C)C4)ccc2-3)cnn1 (centres unmarked) [Compound 263, N-tert-butyl-1-[8-(6-isopropoxypyridazin-4-yl)-6H-isochromeno[3,4-b]pyridin-3-yl]pyrrolidin-3-amine]	> 10000 nM	> 10000 nM
< 100 nM	< 100 nM	< 100 nM	100 to 1000 nM	< 100 nM	100 to 1000 nM	COc1cc(-c2ccc3c(c2)COc2nc(N4CC[C@@H](NC(C)(C)C)C4)ccc2-3)cnn1 [Compound 265, (3R)—N-tert-butyl-1-[8-(6-methoxypyridazin-4-yl)-6H-isochromeno[3,4-b]376yrrolid-3-yl]376yrrolidine-3-amine]	< 100 nM	< 100 nM
> 10000 nM	1000 to 10000 nM	> 10000 nM	> 10000 nM	> 10000 nM	> 10000 nM	CC(C)(C)NC1CCN(c2ccc3c(n2)OCc2cc(-c4cnnc(C5CC5)c4)ccc2-3)C1 (centres unmarked) [Compound 266, N-tert-butyl-1-[8-(6-cyclopropylpyridazin-4-yl)-6H-isochromeno[3,4-b]pyridin-3-yl]pyrrolidin-3-amine]	> 10000 nM	> 10000 nM
1000 to 10000 nM	100 to 1000 nM	100 to 1000 nM	> 10000 nM	100 to 1000 nM	> 10000 nM	CCOc1cc(-c2ccc3c(c2)COc2nc(N4CCC(NC(C)(C)C)C4)ccc2-3)cnn1 (centres unmarked) [Compound 267, N-tert-butyl-1-[8-(6-ethoxypyridazin-4-yl)-6H-isochromeno [3,4-b]pyridin-3-yl]pyrrolidin-3-amine]	1000 to 10000 nM	> 10000 nM
> 10000 nM	1000 to 10000 nM	1000 to 10000 nM	> 10000 nM	1000 to 10000 nM	> 10000 nM	CC(C)(C)NC1CCN(c2ccc3c(n2)OCc2cc(-c4cnnc(OC5CC5)c4)ccc2-3)C1 (centres unmarked) [Compound 268, N-tert-butyl-1-[8-(6-cyclopropoxypyridazin-4-yl)-6H-isochromeno[3,4-b]pyridin-3-yl]pyrrolidin-3-amine]	1000 to 10000 nM	> 10000 nM
100 to 1000 nM	< 100 nM	< 100 nM	100 to 1000 nM	< 100 nM	100 to 1000 nM	COc1cc(-c2ccc3c(c2)COc2nc(N4CC[C@H](NC(C)(C)C)C4)ccc2-3)cnn1 [Compound 269, (3S)—N-tert-butyl-1-[8-(6-methoxypyridazin-4-yl)-6H-isochromeno[3,4-b]pyridin-3-yl]pyrrolidin-3-amine]	100 to 1000 nM	1000 to 10000 nM
